In patent US20240351996A1, “CDK19-SELECTIVE INHIBITORS, AND METHODS OF USE THEREOF” (CZ BIOHUB SF, LLC, priority 2022, published 2024):

Experiments:
CDK19/CycC = CDK19/CycC (Homo sapiens, UniProt Q9BWU1); assay: LanthaScreen europium kinase binding assay (FRET displacement), CDK19; details: for CDK19 Selectivity: CDK19/CDK8 selectivity based on IC50 values; for IC50: his-tagged CDK19/CycC 5 nM, tracer 10 nM, 3 h incubation
Method: (§1) FRET Displacement Assay to Measure IC50: The CDK19/CDK8 IC50 values were measured to evaluate activity and to determine CDK19/CDK8 selectivity. The IC50 values of the disclosed compounds was measured using a LanthaScreen™ europium kinase binding assay (ThermoFisher), as described herein.
To a kinase buffer cocktail solution (i.e., 5× Kinase Buffer A) was added: purified recombinant his-tagged CDK19/CycC protein (5 nM), ATP-competitive kinase inhibitor scaffold kinase tracer Alexa Fluor® 665 (10 nM), biotin anti-his tag antibody (2 nM), LanthaScreen® europium-streptavidin (2 nM). An aliquot of the cocktail solution (10 μL) was added to each well of a LUMITRAC™ 200:384 flat bottom, non-treated microtiter white plate. The plate was then covered to protect light sensitive reagents and incubated for 30 min at room temperature to equilibrate before addition of any inhibitors.
(§2) A serial dilution of the compounds was titrated into each well using an automated liquid handling Staccato integrated system at the following concentration(s) (Log10 Molar [C]): −4.5, −5.0, −5.5, −6.0, −6.5, −7.0, −7.5, −8.0 so that a complete dose-response could be calculated. A Tecan microplate reader infinite m200 instrument was then used to measure the FRET signal of each individual well using an excitation of 317/20 nm, emission europium of 620/12 nm, and emission kinase tracer of 665/12 nm after a 3 h incubation period at room temperature until steady-state kinetics were achieved.
(§3) Results were performed in duplicate and were repeated a total of 3 independent times before data was normalized to the DMSO control group and IC50 values reported.

CDK8 = CDK8 (Homo sapiens, UniProt P49336); assay: LanthaScreen europium kinase binding assay (FRET displacement), CDK8
Sequence of CDK8 (P49336 whole entry): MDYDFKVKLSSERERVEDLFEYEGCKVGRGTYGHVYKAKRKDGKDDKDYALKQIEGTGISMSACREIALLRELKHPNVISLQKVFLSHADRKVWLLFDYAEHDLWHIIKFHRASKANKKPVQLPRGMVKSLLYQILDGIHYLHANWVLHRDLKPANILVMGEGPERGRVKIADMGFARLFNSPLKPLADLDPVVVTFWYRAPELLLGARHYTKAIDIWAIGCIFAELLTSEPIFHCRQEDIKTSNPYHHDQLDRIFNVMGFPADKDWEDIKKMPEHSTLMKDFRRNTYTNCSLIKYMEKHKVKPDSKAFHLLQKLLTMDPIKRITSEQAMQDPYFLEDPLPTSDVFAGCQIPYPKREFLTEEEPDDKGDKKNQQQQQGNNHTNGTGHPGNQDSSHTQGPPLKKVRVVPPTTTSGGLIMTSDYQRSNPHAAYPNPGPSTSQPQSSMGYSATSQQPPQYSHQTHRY
Sequence of CDK8 (P24863 whole entry partner): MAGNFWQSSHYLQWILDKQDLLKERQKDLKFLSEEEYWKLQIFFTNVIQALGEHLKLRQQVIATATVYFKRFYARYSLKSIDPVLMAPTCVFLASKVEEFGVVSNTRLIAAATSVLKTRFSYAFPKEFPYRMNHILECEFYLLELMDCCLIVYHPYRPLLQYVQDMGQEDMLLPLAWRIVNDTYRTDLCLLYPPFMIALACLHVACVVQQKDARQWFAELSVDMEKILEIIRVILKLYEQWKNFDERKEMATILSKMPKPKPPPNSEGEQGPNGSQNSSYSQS
Method: as §1
[…] An aliquot of the cocktail solution (10 μL) was added to each well of a LUMITRAC™ 200:384 flat bottom, non-treated microtiter white plate. The plate was then covered to protect light sensitive reagents and incubated for 30 min at room temperature to equilibrate before addition of any inhibitors.
as §2, §3

MDA-MB-231 TNBC cells = assay: Triple-negative breast cancer cell death assay (LD50); assay type: cell-based; details: MDA-MB-231, 48 h treatment, live cell counts normalized to DMSO
Method: Triple-Negative Breast Cancer Cell Death Assay to Measure LD50: The efficacy and selectivity of the disclosed compounds was evaluated in a TNBC cell line assay (MDA-MB-231) and/or human foreskin fibroblast 2088 cells, as was protein binding to human serum and microsomal stability of the disclosed compounds, as described herein.
Cells from a TNBC cell line (MDA-MB-231) (approximately 100,000 cells) and/or human foreskin fibroblast 2088 cells were seeded into each well of a 6-welled polystyrene treated tissue culture plate and were allowed to attach for 18 h before treatment with the test compound. Cells were then treated every 24 h with a fresh batch of media containing the test compound at one of the respective concentration(s) (Log10 Molar [C]): −5.0, −5.5, −6.0, −6.5, −7.0, −7.5 so that a complete dose-response could be calculated.
After 48 h of treatment, adherent cells were fixed with a 4% paraformaldehyde solution and stained with Hoechst 33342 nuclear dye (5 μg/mL). Each well was imaged at 10× magnification on a Keyence BZ-X710 microscope and live cell counts were performed in triplicate for each condition using automated ImageJ computational software. LD50 values represent the percentage of live cells after treatment with the test compound, which was calculated after normalization to the DMSO only treated control group.

[1] = Liver microsome stability assay (Cyprotex), human; assay type: in vitro ADME; details: human liver microsomes
Method: (§4) Microsome Assay to Measure Stability: The stability of the compounds was evaluated using a liver cell microsome assay commercially available from Cyprotex (Watertown, MA) (https://www.cyprotex.com/admepk/in-vitro-metabolism/microsomal-stability).

[2] = Liver microsome stability assay (Cyprotex), mouse; assay type: in vitro ADME; details: mouse liver microsomes
Method: as §4

Sequence of CDK19/CycC (Q9BWU1 whole entry): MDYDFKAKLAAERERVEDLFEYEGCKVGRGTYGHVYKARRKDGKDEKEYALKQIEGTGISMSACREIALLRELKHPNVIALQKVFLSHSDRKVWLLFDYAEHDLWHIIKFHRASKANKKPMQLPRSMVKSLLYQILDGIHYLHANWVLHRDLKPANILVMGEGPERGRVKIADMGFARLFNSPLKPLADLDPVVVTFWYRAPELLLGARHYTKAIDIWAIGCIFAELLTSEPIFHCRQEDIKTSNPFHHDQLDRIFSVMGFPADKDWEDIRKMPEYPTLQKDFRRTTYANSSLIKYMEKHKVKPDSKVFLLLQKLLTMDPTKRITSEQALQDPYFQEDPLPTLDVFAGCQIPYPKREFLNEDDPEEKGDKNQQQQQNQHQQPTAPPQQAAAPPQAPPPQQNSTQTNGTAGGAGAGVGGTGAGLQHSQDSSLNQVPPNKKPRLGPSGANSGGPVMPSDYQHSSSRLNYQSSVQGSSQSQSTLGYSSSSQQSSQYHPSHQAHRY
Sequence of CDK19/CycC (P24863 whole entry partner): as the sequence (P24863 whole entry partner) above

Compound	CDK19 Selectivity (CDK19/CycC)	IC50 (CDK19/CycC) [nM]	IC50 (CDK8) [nM]	MDA LD50 (MDA-MB-231 TNBC cells) [nM]	Human Microsome Stability [1] [μL/min/mg protein]	Mouse Microsome Stability [2] [μL/min/mg protein]
CC(C)Cc1ccc(Nc2ncc(Nc3ccnc4ccccc34)cn2)cc1 [Compound A11]	0.9	25	22	180	28.7	31.3
Cc1cnccc1Nc1cnc(Nc2ccc(CC(C)C)cc2)nc1 [Compound A21]	15	38	564	178	159.0	93.0
c1cc(Nc2cnc(Nc3ccc(C4CCC4)cc3)nc2)ccn1 [Compound A39]	2	9.5	19	158	7.6	38.6
CC(C)Cc1ccc(Nc2ncc(Nc3ccncc3OC3CCCC3)cn2)cc1 [Compound A53]	≥22	≤ 2.5	56	91	36	19
Fc1ccc(Nc2ncc(Oc3ccncc3)cn2)cc1 [Compound A142]	1	10000	10000			
CC(C)Cc1ccc(Nc2ncc(Oc3ccncc3)cn2)cc1 [Compound A143]	3	3000	10000			
FC(F)(F)Oc1ccc(Nc2ncc(Nc3ccncc3)cn2)cc1 [Compound A145]	2	36	72			
CC(C)Cc1ccc(Nc2ncc(Nc3ccncc3C(=O)NC3CCCC3)cn2)cc1 [Compound A146]	1	219	178			
Cc1cnccc1Nc1cnc(Nc2ccc(C3CCC3)cc2)nc1 [Compound A147]	1	13	15			
Cc1cnccc1Nc1cnc(Nc2ccc(C3CCCCC3)cc2)nc1 [Compound A148]	1	18	17			
CC(C)Cc1ccc(Nc2ncc(Nc3ccncc3C#N)cn2)cc1 [Compound A149]		≤ 2.5	3			
Cc1cnc(F)cc1Nc1cnc(Nc2ccc(CC(C)C)cc2)nc1 [Compound A150]	2	23	50			
CC(C)Cc1ccc(Nc2ncc(S(=O)(=O)c3ccncc3)cn2)cc1 [Compound A152]		1060	4630			
CC(C)Cc1ccc(Nc2ncc(Nc3ccc4c(c3)CNC4=O)cn2)cc1 [Compound A153]		266	605			
CC(C)Cc1ccc(Nc2ncc(Nc3ccncc3C(F)(F)F)cn2)cc1 [Compound A154]	1	3	3			
CC(C)Cc1ccc(Nc2ncc(-c3cccc(-c4ccncc4)c3)cn2)cc1 [Compound A155]	3	6	19			
CC(C)Cc1ccc(Nc2ncc(Nc3ccncc3C#Cc3ccccc3)cn2)cc1 [Compound A156]	5	54	248			

The next lines start with results.

CDK19 Selectivity (CDK19/CycC)	IC50 (CDK19/CycC) [nM]	IC50 (CDK8) [nM]	Compound	MDA LD50 (MDA-MB-231 TNBC cells) [nM]	Human Microsome Stability [1] [μL/min/mg protein]	Mouse Microsome Stability [2] [μL/min/mg protein]
1	67	64	CC(C)Cc1ccc(Nc2ncc(Nc3ccncc3OC3CCCC3(C)C)cn2)cc1 (centres unmarked) [Compound A157]			
	24	16	CC(C)Cc1ccc(Nc2ncc(Nc3ccncc3-c3cnn(C4CC4)c3)cn2)cc1 [Compound A158]			
3	18	54	CC(C)Cc1ccc(Nc2ncc(Nc3ccnc(N)c3)cn2)cc1 [Compound A159]			
3	33	95	Cc1cnccc1Nc1cnc(Nc2ccc(OC(C)C)cc2)nc1 [Compound A160]			
2	9	20	CC(C)Cc1ccc(Nc2ncc(C(F)(F)c3ccncc3)cn2)cc1 [Compound A161]			
4	89	362	Cc1cnccc1Nc1cnc(Nc2ccc(OC(C)C)cc2F)nc1 [Compound A162]			
1	76	75	CC(C)Cc1ccc(Nc2ncc(Nc3ccncc3NC3CCCC3)cn2)cc1 [Compound A163]			
3	75	226	CC(C)Cc1ccc(Nc2ncc(Nc3ccncc3C3CC3)cn2)cc1 [Compound A164]			
4	57	238	Cc1cnccc1Nc1cnc(Nc2ccc(CC(C)C)cc2C)nc1 [Compound A165]			
1	5	5	Cc1nc(Nc2ccc(CC(C)C)cc2)ncc1Nc1ccncc1C(F)(F)F [Compound A166]			
4	154	614	CC(C)Cc1ccc(Nc2ncc(C(C)(O)c3ccncc3)cn2)cc1 (centres unmarked) [Compound A167]			
3	20	62	CC(C)Cc1ccc(Nc2ncc(C3(c4ccncc4)CC3)cn2)cc1 [Compound A169]			
2	4	7	CC(C)Cc1ccc(Nc2ncc(C(=O)c3ccncc3OC3CCCC3)cn2)cc1 [Compound A170]			
2	16	25	COc1cc(CC(C)C)ccc1Nc1ncc(C(=O)c2ccncc2OC2CCCC2)cn1 [Compound A171]			
2	5	11	Cc1cc(CC(C)C)ccc1Nc1ncc(C(=O)c2ccncc2OC2CCCC2)cn1 [Compound A172]			
5	52	244	CC(C)Cc1ccc(Nc2ncc(Nc3ccnc(C4CC4)c3)cn2)cc1 [Compound A173]			
4	7	33	Cc1cc(Nc2cnc(Nc3ccc(CC(C)C)cc3)nc2)c(F)cn1 [Compound A174]			
4	36	129	CC(C)Cc1ccc(Nc2ncc(Nc3cc(F)ncc3F)cn2)cc1 [Compound A175]			
2	7	13	CC(C)Cc1ccc(Nc2ncc(C(=O)c3ccncc3OC3CCCC3)cn2)c(F)c1 [Compound A176]			
	≤ 2.5	3	CC(C)Oc1ccc(Nc2ncc(Nc3ccncc3C(F)(F)F)cn2)cc1 [Compound A177]			
	≤ 2.5	10	CCOc1ccc(Nc2ncc(Nc3ccncc3C(F)(F)F)cn2)cc1 [Compound A178]			
≤1	≤ 2.5	≤ 2.5	O=C(c1cnc(Nc2ccc(C3CCOCC3)cc2)nc1)c1ccncc1OC1CCCC1 [Compound A179]			
	4	6	c1cc(Nc2cnc(Nc3ccc(C4CCOCC4)cc3)nc2)c(OC2CCCC2)cn1 [Compound A180]			
≤1	≤ 2.5	≤ 2.5	FC(F)(F)c1cnccc1Nc1cnc(Nc2ccc(C3CCOCC3)cc2)nc1 [Compound A181]			
2	1340	2380	CC(C)Cc1ccc(Nc2ccc(C(=O)c3cccnc3)cn2)cc1 [Compound A200]			
